The results in this text go back to patent publication US20240392348A1, “METHODS AND COMPOSITIONS USEFUL FOR NUCLEIC ACID SEQUENCING” (Singular Genomics Systems, Inc., priority 2021, published 2024).

The experiment has as its system polymerase. The format is biochemical.

Text: The incorporation score is a direct reflection of the incorporation half time; +++ refers to 4 to 14 seconds, ++ refers to 15 to 25 seconds, and + refers to greater than 25 seconds. The next base incorporation score reflects the incorporation half time for the next base, C refers to 20 to 100 seconds, B refers to 101 to 200 seconds, and A refers to greater than 200 seconds.

In the case of `O=C(O)CCCC[C@@H]1SC[C@@H]2NC(=O)N[C@@H]21` [biotin], the incorporation score result (nucleobase not stated) is “+ (+ refers to greater than 25 seconds)”. This compound registered an incorporation halftime (same experimental conditions for biotin and rhodamine dye) of 28 s.
